Source: US9556150B2, “Inhibitors of bruton's tyrosine kinase” (Hoffmann-La Roche Inc., priority 2013, dated 2017)
Counter-ions that a name gives are not always drawn.

These compounds were tested against Bruton's Tyrosine Kinase (BTK), inactivated state (Homo sapiens (Human), UniProt Q06187) (assay: Bruton's Tyrosine Kinase (BTK) Inhibition TR-FRET (Time Resolved FRET) competition assay). Details: TR-FRET competition with Kinase Tracer 178, BTK-Eu complex, 18-24 h at 14° C.
Format: binding
Description: Bruton's Tyrosine Kinase (BTK) Inhibition TR-FRET (Time Resolved FRET) Assay
This BTK competition assay measures compound potency (IC50) for the inactivated state of Bruton's Tyrosine Kinase using FRET (Förster/Fluorescence Resonance Energy Transfer) technology. The BTK-Eu complex was incubated on ice one hour prior to use at a starting concentration of 50 nM BTK-Bioease™: 10 nM Eu-streptavidin (Perkin-Elmer Catalog#AD0062). The assay buffer consisted of 20 mM HEPES (pH 7.15), 0.1 mM DTT, 10 mM MgCl2, 0.5 mg/ml BSA with 3% Kinase Stabilizer (Fremont Biosolutions, Catalog #STB-K02). After 1 h, the reaction mixture from above was diluted 10 fold in assay buffer to make 5 nM BTK: 1 nM Eu-Streptavidin complex (donor fluorophore). 18 μl of a mixture of 0.11 nM BTK-Eu and 0.11 nM Kinase Tracer 178 (Invitrogen, Catalog #PV5593,) with BTK-Eu alone as no negative control, was then dispensed into 384-well flat bottom plates (Greiner, 784076). Compounds to be tested in assay were prepared as 10× concentrations and serial dilution in half-log increments was performed in DMSO so as to generate 10 point curves. To initiate the FRET reaction, compounds prepared as 10× stock in DMSO was added to the plates and the plates were incubated 18-24 h at 14° C.
After the incubation the plates were read on a BMG Pherastar Fluorescent plate reader (or equivalent) and used to measure the emission energy from the europium donor fluorophore (620 nm emission) and the FRET (665 nm emission). The negative control well values were averaged to obtain the mean minimum. The positive “no inhibitor” control wells were averaged to obtain the mean maximum. Percent of maximal FRET was calculated using following equation: % max FRET=100×[(FSR cmpd−FSR mean min)/(FSR mean max−FSR mean min)]
where FSR=FRET Signal ratio. % Max FRET curves were plotted in Activity Base (Excel) and the IC50(%), hill slope, z′ and % CV were determined. The mean IC50 and standard deviation will be derived from duplicate curves (singlet inhibition curves from two independent dilutions) using Microsoft Excel.
Representative compound data for this assay are listed below in Table II.

Chain of Bruton's Tyrosine Kinase (BTK), inactivated state (Q06187 whole entry): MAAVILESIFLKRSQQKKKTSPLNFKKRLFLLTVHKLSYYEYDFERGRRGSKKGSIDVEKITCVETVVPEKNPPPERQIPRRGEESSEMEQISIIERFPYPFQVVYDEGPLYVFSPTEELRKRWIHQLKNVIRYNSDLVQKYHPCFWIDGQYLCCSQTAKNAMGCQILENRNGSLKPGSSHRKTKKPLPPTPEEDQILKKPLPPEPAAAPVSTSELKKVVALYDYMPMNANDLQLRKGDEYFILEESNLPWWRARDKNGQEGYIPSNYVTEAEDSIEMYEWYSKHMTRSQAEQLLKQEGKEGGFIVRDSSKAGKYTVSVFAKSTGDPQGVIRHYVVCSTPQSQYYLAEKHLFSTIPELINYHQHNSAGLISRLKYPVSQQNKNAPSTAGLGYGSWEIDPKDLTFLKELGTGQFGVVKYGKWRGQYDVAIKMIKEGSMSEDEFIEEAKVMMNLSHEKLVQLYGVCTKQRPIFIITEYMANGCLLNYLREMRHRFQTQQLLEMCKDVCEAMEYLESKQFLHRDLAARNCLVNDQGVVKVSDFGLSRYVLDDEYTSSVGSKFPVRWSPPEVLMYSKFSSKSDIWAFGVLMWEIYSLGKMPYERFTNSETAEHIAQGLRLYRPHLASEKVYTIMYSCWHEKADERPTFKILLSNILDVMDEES

| IC50 [nM] | Compound |
| --- | --- |
| 1.7 | N#Cc1cccc(Oc2ccc(-n3ncc(C(=O)c4cc5cc(C(=O)NS(=O)(=O)C6CC6)ccc5[nH]4)c3N)c(Cl)c2)c1 [Example I-45, Cyclopropanesulfonic acid (2-{5-amino-1-[2-chloro-4-(3-cyano-phenoxy)-phenyl]-1H-pyrazole-4-carbonyl}-1H-indole-5-carbonyl)-amide] |
| 52 | N#CNC(=O)c1ccc2[nH]c(C(=O)c3cnn(-c4ccc(Oc5cccc(C#N)c5)cc4Cl)c3N)cc2c1 [Example I-41, 2-{5-Amino-1-[2-chloro-4-(3-cyano-phenoxy)-phenyl]-1H-pyrazole-4-carbonyl}-N-cyano-1H-indole-5-carboxylic acid amide] |
| 6.1 | N#Cc1cccc(Oc2ccc(-n3ncc(C(=O)c4cc5cc(C(=O)N6CCOCC6)ccc5[nH]4)c3N)c(Cl)c2)c1 [Example I-30, 3-(4-{5-Amino-4-[5-(morpholine-4-carbonyl)-1H-indole-2-carbonyl]-pyrazol-1-yl}-3-chloro-phenoxy)-benzonitrile] |
| > 100000 | N#Cc1cc(Oc2cccc(F)c2F)ccc1-n1ncc(C(=O)c2cc3cc(C(=O)N4CCOCC4)ccc3[nH]2)c1N [Example I-21, 2-{5-Amino-4-[5-(morpholine-4-carbonyl)-1H-indole-2-carbonyl]-pyrazol-1-yl}-5-(2,3-difluoro-phenoxy)-benzonitrile] |
| 1.7 | CNC1CCN(C(=O)c2ccc3[nH]c(C(=O)c4cnn(-c5ccc(Oc6ccccc6C(=O)N(C)C)cc5Cl)c4N)cc3c2)C1 (stereo not drawn) [Example I-53, acetic acid salt] |
| 3.7 | Cc1cc(OCc2ccc(Cl)cc2)ccc1-n1ncc(C(=O)c2cc3cc(C(=O)N4CCOCC4)ccc3[nH]2)c1N [Example I-27, {5-Amino-1-[4-(4-chloro-benzyloxy)-2-methyl-phenyl]-1H-pyrazol-4-yl}-[5-(morpholine-4-carbonyl)-1H-indol-2-yl]-methanone] |
| 130 | Cc1cc(Oc2cccc(C#N)c2)ccc1-n1ncc(C(=O)c2nc3cc(C(=O)O)ccc3[nH]2)c1N [Example I-42, 2-{5-Amino-1-[4-(3-cyano-phenoxy)-2-methyl-phenyl]-1H-pyrazole-4-carbonyl}-1H-benzoimidazole-5-carboxylic acid] |
| 35 | Cc1cc(Oc2cccc(F)c2F)cc(C)c1-n1ncc(C(=O)c2cc3cc(C(=O)N4CCOCC4)ccc3[nH]2)c1N [Example I-24, {5-Amino-1-[4-(2,3-difluoro-phenoxy)-2,6-dimethyl-phenyl]-1H-pyrazol-4-yl}-[5-(morpholine-4-carbonyl)-1H-indol-2-yl]-methanone] |
| 24 | Cc1cc(Oc2cccc(C#N)c2)ccc1-n1ncc(C(=O)c2nc3cc(C(=O)N4CCOCC4)ccc3[nH]2)c1N [Example I-39, 3-(4-{5-Amino-4-[5-(morpholine-4-carbonyl)-1H-benzoimidazole-2-carbonyl]-pyrazol-1-yl}-3-methyl-phenoxy)-benzonitrile] |
| 5.2 | Cc1cc(Oc2cccc(C#N)c2)ccc1-n1ncc(C(=O)c2cc3cc(C(=O)N4CCOCC4)ccc3[nH]2)c1N [Example I-18, 3-(4-{5-Amino-4-[5-(morpholine-4-carbonyl)-1H-indole-2-carbonyl]-pyrazol-1-yl}-3-methyl-phenoxy)-benzonitrile] |
| 2.3 | Cc1cc(Oc2cccc(F)c2F)ccc1-n1ncc(C(=O)c2cc3cc(C(=O)N4CCOCC4)ccc3[nH]2)c1N [Example I-5] |
| 22 | Cc1cc(Oc2cccc(C#N)c2)ccc1-n1ncc(C(=O)c2cc3cc(C(=O)O)ccc3[nH]2)c1N [Example I-32, 2-{5-Amino-1-[4-(3-cyano-phenoxy)-2-methyl-phenyl]-1H-pyrazole-4-carbonyl}-H-indole-5-carboxylic acid] |
| 1.3 | Cc1cc(Oc2ccccc2C#N)ccc1-n1ncc(C(=O)c2cc3cc(C(=O)N4CCOCC4)ccc3[nH]2)c1N [Example I-43, 2-(4-{5-Amino-4-[5-(morpholine-4-carbonyl)-1H-indole-2-carbonyl]-pyrazol-1-yl}-3-methyl-phenoxy)-benzonitrile] |
| 3.5 | Cc1cc(Oc2cccc(Br)c2)ccc1-n1ncc(C(=O)c2cc3cc(C(=O)N4CCOCC4)ccc3[nH]2)c1N [Example I-17, (2-{5-Amino-1-[4-(3-bromo-phenoxy)-2-methyl-phenyl]-1H-pyrazole-4-carbonyl}-1H-indol-5-yl)-morpholin-4-yl-methanone] |
| 29 | COC(=O)c1ccc2[nH]c(C(=O)c3cnn(-c4ccc(Oc5cccc(C#N)c5)cc4C)c3N)cc2c1 [Example I-31, 2-{5-Amino-1-[4-(3-cyano-phenoxy)-2-methyl-phenyl]-1H-pyrazole-4-carbonyl}-H-indole-5-carboxylic acid methyl ester] |
| 1.1 | CN(C)C(=O)c1ccccc1Oc1ccc(-n2ncc(C(=O)c3cc4cc(C(=O)N5CCNCC5)ccc4[nH]3)c2N)c(Cl)c1 [Example I-51, 2-(4-{5-Amino-4-[5-(piperazine-1-carbonyl)-1H-indole-2-carbonyl]-pyrazol-1-yl}-3-chloro-phenoxy)-N,N-dimethyl-benzamide acetic acid salt] |
| 150 | COC(=O)c1ccc2[nH]c(C(=O)c3cnn(-c4ccc(Oc5cccc(C#N)c5)cc4C)c3N)nc2c1 [Example I-38, 2-{5-Amino-1-[4-(3-cyano-phenoxy)-2-methyl-phenyl]-1H-pyrazole-4-carbonyl}-1H-benzoimidazole-5-carboxylic acid methyl ester] |
| 32 | CN1CCN(C(=O)c2ccc3[nH]c(C(=O)c4cnn(-c5ccc(Oc6cccc(C(=O)N(C)C)c6)cc5Cl)c4N)cc3c2)CC1 [Example I-47, 3-(4-{5-Amino-4-[5-(4-methyl-piperazine-1-carbonyl)-1H-indole-2-carbonyl]-pyrazol-1-yl}-3-chloro-phenoxy)-N,N-dimethyl-benzamide] |
| 220 | Nc1c(C(=O)c2cc3cc(C(=O)N4CCOCC4)ccc3[nH]2)cnn1-c1ccc(Oc2ccccc2F)nc1 [Example I-9, {5-Amino-1-[6-(2-fluoro-phenoxy)-pyridin-3-yl]-1H-pyrazol-4-yl}-[5-(morpholine-4-carbonyl)-1H-indol-2-yl]-methanone] |
| 6.8 | Nc1c(C(=O)c2cc3cc(C(=O)N4CCOCC4)ccc3[nH]2)cnn1-c1ccc(Oc2ccccc2)cc1 [Example I-1, [5-Amino-1-(4-phenoxy-phenyl)-1H-pyrazol-4-yl]-[5-(morpholine-4-carbonyl)-1H-indol-2-yl]-methanone] |
| 14 | Cc1cc(Oc2cccc(F)c2F)ccc1-n1ncc(C(=O)c2cc3cc(C(=O)O)ccc3[nH]2)c1N [Example I-26, 2-{5-Amino-1-[4-(2,3-difluoro-phenoxy)-2-methyl-phenyl]-1H-pyrazole-4-carbonyl}-1H-indole-5-carboxylic acid] |
| 0.82 | Nc1c(C(=O)c2cc3cc(C(=O)N4CCOCC4)ccc3[nH]2)cnn1-c1ccc(Oc2ccccc2F)cc1Cl [Example I-15, {5-Amino-1-[2-chloro-4-(2-fluoro-phenoxy)-phenyl]-1H-pyrazol-4-yl}-[5-(morpholine-4-carbonyl)-1H-indol-2-yl]-methanone] |
| 6.9 | COc1cc(Oc2cccc(F)c2F)ccc1-n1ncc(C(=O)c2cc3cc(C(=O)N4CCOCC4)ccc3[nH]2)c1N [Example I-28, {5-Amino-1-[4-(2,3-difluoro-phenoxy)-2-methoxy-phenyl]-1H-pyrazol-4-yl}-[5-(morpholine-4-carbonyl)-1H-indol-2-yl]-methanone] |
| 3.1 | CNCCNC(=O)c1ccc2[nH]c(C(=O)c3cnn(-c4ccc(Oc5ccccc5C(=O)N(C)C)cc4Cl)c3N)cc2c1 [Example I-56, 2-{5-Amino-1-[2-chloro-4-(2-dimethylcarbamoyl-phenoxy)-phenyl]-1H-pyrazole-4-carbonyl}-1H-indole-5-carboxylic acid (2-methylamino-ethyl)-amideacetic acid salt] |
